Data set [1] has as its system ears swelling of mice induced by xylene. The data set is described as follows: Ears swelling of mice induced by xylene (anti-inflammatory effects). Format: in vivo. Particulars: for Swelling degree: xylene 20 μL on right ear, 30 min, weight difference of 6 mm ear pieces. The method, then:
2.5 Effects on Ears Swelling of Mice Induced by Xylene (Anti-Inflammatory Effects)
40 mice were taken and randomly divided into 4 groups of 10 mice each as described in 2.1, in which intragastric administration was conducted at 10 mL/kg, the positive control group received dexamethasone acetate tablets at 5 mg/kg, and the negative control group received equal volume of 0.5% CMC-Na, once per day continuously for 7 days. At the night before the experiments, the mice were fasted but had access to water for 12 h. At the 7th day, 30 min after the administration, the mice were evenly smeared with the inflammatory agent xylene (20 μL for each mouse) at the front and back sides of right ears to cause inflammation, and killed by cervical dislocation after 30 min, with their both ears cut along the baseline of the auricle. The ear pieces of the same part of the both ears were punched out with a hole punch of 6 mm diameter, and weighted by an analytical balance. The difference between the weights of the two ears was the swelling degree (mg), and the swelling inhibition rate (%) was calculated. Swelling inhibition rate=(Average swelling degree of the control group−Average swelling degree of the administration group)/Average swelling degree of the control group 2.6 Statistical Methods:
(§1) Experimental data were analyzed using SPSS17.0 software, and expressed as means±standard deviations (x±SD). When the homogeneity of variance was complied, LSD test was used to make comparison between groups; and when the homogeneity of variance was not complied, Dunnett's T3 test was used to make comparison between groups. A P-value less than 0.05 means a statistical significance, and a P-value less than 0.01 means a significant statistical significance.

The subject of data set [2] is excretion of phenol red from the mouse trachea. The data set is described as follows: Excretion amount of phenol red from the mouse trachea (expectorant effects). Format: in vivo, mice. The following applies: trachea wash in 2 mL 5% NaHCO3, absorbance at 546 nm, n = 10. Here is the method: 2.3 Effects on the Excretion Amount of Phenol Red from the Mouse Trachea (Expectorant Effects)
40 mice were taken and randomly divided into 4 groups as described in 2.1. The positive control group received ambroxol hydrochloride tablets at 20 mg/kg. After the mice were acclimatized for 3 days, they were administered intragastrically once a day continuously for 7 days. The administration volume was 20 mL/kg, and 30 min after the last administration, each mouse was intraperitoneally injected with 5% phenol red solution at 0.2 mL/20 g, sacrificed after 30 min, fixed supine, neck straightened, surrounding connective tissue stripped to expose the trachea, and dissected to separate out a section of trachea that was from below the thyroid cartilage to the bifurcation of the trachea. Each trachea section was put into a test tube pre-filled with 2 mL of 5% NaHCO3 solution, ultrasonically washed for 15 min to release the tracheal phenol red out from the trachea completely, and centrifuged at 1000 r/min for 15 min to obtain a supernatant. The absorbance values of the supernatant at 546 nm were measured by an enzyme reader, and converted into the phenol red content by being compared with standard curves of phenol red.
as §1

Data set [3] has as its system allergic asthma in guinea pigs. The data set is described as follows: Allergic asthma in guinea pigs (egg protein sensitisation and spray). The following applies: 1% egg protein spray, capped at 6 min. The data set is classed as in vivo. Here is the method:
2.4 Effects on the Allergic Asthma in Guinea Pigs (Effects for Relieving Asthma)
40 guinea pigs, male and female each in half, having body weight of 250-280 g, were randomly divided into 4 groups as described in 2.1. The positive control group received aminophylline tablets at 100 mg/kg. After the guinea pigs were acclimatized for 3 days, they received 10% fresh egg protein solution at 10 mL/kg through an intraperitoneal injection. From the 15th day, it began to administer intragastrically to each group at 10 mL/kg. The negative control group received equal volume of 0.5% CMC-Na once per day continuously for 7 days. From the 17th day, it began to let the guinea pigs inhale 1% egg protein solution, by spraying through an asthma-inducing, for 15 min to elicit at 1-day intervals totally for 3 times. After the last irritation, the asthma latency in the guinea pigs, that is, the time from the beginning of spray to asthma attacks (cough, dyspnea, restlessness, convulsions, falling down or death), was recorded. For the guinea pigs which had not appeared asthma attack after 6 min, their latency was taken as 6 min.
as §1

Data set [4] relates to cough response of mice induced by concentrated ammonia. The data set is described as follows: Cough response of mice induced by concentrated ammonia (antitussive effects). The following applies: n = 10; for Number of coughs per 2 min: 25% ammonia spray; for Latency: cough latency, 25% ammonia spray 15 s, 1 h after last dose. The data set is classed as in vivo. The method, then: 2.1 Effects on the Cough Response of Mice Induced by Concentrated Ammonia (Antitussive Effects)
40 mice were taken and randomly divided into four groups, namely a negative control group (0.5% of CMC-Na: prepared before tests by weighting 5 g of CMC-Na into a beaker, adding 800 mL pure water thereto, stirring, heating, boiling, and cooling down, then using a measuring cylinder to adjust the volume to 1000 mL, to obtain the transparent, viscous liquid with a concentration of 0.5% for the preparation of test samples and solvent control. Such liquid prepared once and can be used for 5-7 days); a positive control group of codeine phosphate tablets at 60 mg/kg; Trezastilbenoside high dose (300 mg/kg) group; and Trezastilbenoside low dose (150 mg/kg) group. For each administration group, 0.5% CMC-Na was used for dissolving and diluting to a corresponding concentration. After the mice were accilimatized for 3 days, they were administered intragastrically once a day continuously for 7 days. The administration volume was 20 mL/kg, and 1 h after the last administration, the mice were placed one by one into a closed and dry container where the mist of 25% of concentrated ammonia was introduced into by spraying at constant pressure for 15 seconds to induce cough, then the cough latency and the number of coughs in mice during the 2-minute period were recorded thought observation.
as §1

Data set [5] has as its system cough in guinea pigs induced by citric acid spray. The data set is described as follows: Cough in guinea pigs induced by citric acid spray (antitussive effects). Format: in vivo. The following applies: n = 10; for Number of coughs per 5 min: 17.5% citric acid spray; for Latency: cough latency, 17.5% citric acid spray 1 min, latency capped at 5 min. The method, then: 2.2 Effects on the Cough in Guinea Pigs Induced by Citric Acid Spray (Antitussive Effects)
Healthy and sensitive guinea pigs (a pre-selection was carried out one day before the experiments, to exclude the guinea pigs which coughed less than 10 times during the five-minute period), having body weight of 250-280 g, male and female each in half were taken, and randomly divided into groups as described in 2.1. After the guinea pigs were acclimatized for 3 days, they were administered intragastrically once a day continuously for 5 days, and at the fifth day 1 hour after the administration, the guinea pigs were placed inside a 3 L sealed glass bell jar where 17.5% citric acid was sprayed into at constant pressure for 1 minute by an ultrasonic nebulizer. The cough latency and the number of coughs of the guinea pigs during the 5-minute period were recorded though observation. For guinea pigs whose latency exceeded 5 min, it was recorded as 5 min.
as §1

The conditions of data set [6]: safety researches, background statement; cited from earlier work.
The conditions of data set [7]: safety researches, background statement; cited from earlier work. This is another data set of the same source.
Where [8] appears, read: 60 mg/kg intragastric once a day for 7 days.
Setting [9] is: 60 mg/kg intragastric once a day for 5 days.
Where [10] appears, read: 150 mg/kg intragastric once a day for 7 days.
Where [11] appears, read: 300 mg/kg intragastric once a day for 7 days.
The mark [12] stands for this setting: 150 mg/kg intragastric once a day for 5 days.
The mark [13] stands for this setting: 300 mg/kg intragastric once a day for 5 days.
[14] abbreviates: 150 mg/kg intragastric once per day for 7 days.
[15] abbreviates: 300 mg/kg intragastric once per day for 7 days.

Where a name gives a salt, the structure may show the parent alone.

Usually inhibition stands for the drop in the measured response relative to a control, in per cent. Turning to `CC(=O)OCC(=O)[C@@]1(O)[C@H](C)C[C@H]2[C@@H]3CCC4=CC(=O)C=C[C@]4(C)[C@@]3(F)[C@@H](O)C[C@@]21C` [Dexamethasone acetate tablet, Dexamethasone acetate, reference compound], in data set [1] (5 mg/kg intragastric once per day for 7 days), the “Swelling degree” value amounted to 1.24 ± 0.67 mg. The inhibition at 5 mg/kg in data set [1] (Mus musculus, po, 168 h, 5 mg/kg intragastric once per day for 7 days, relative to average swelling degree of control group, read-out: Swelling inhibition rate (%)) came to 65.9%.
`Nc1c(Br)cc(Br)cc1CN[C@H]1CC[C@H](O)CC1` [Ambroxol hydrochloride tablet, Ambroxol hydrochloride, reference compound]: in data set [2] (ambroxol hydrochloride 20 mg/kg (positive control) intragastric once a day for 7 days), the Phenol red concentration was found to be 4.23 ± 1.34 µg/mL.
As to `Cn1c(=O)c2[nH]cnc2n(C)c1=O` [Aminophylline tablet, Aminophylline, reference compound], the “Latency” value in data set [3] (100 mg/kg intragastric once per day for 7 days) came to 94.23 ± 31.55 s.
Consider `COc1ccc2c3c1O[C@H]1[C@@H](O)C=C[C@H]4[C@@H](C2)N(C)CC[C@@]341` [Codeine phosphate tablets, Codeine phosphate, reference compound], for which, in data set [4] (setting [8]), the “Number of coughs per 2 min” value was 15.13 ± 7.83 and the “Latency” value was 56.23 ± 16.46 s. In data set [5] (setting [9]), the “Number of coughs per 5 min” value amounted to 7.83 ± 3.83 and the “Latency” value was 130.48 ± 59.34 s.
Turning to `OC[C@H]1O[C@@H](Oc2cc(/C=C/c3cc(O)cc(O)c3)ccc2O)[C@H](O)[C@@H](O)[C@@H]1O` [Trezastilbenoside], the “Number of coughs per 2 min” value stood at 25.88 ± 9.25 in data set [4] (setting [10]) and 19.63 ± 10.27 in data set [4] (setting [11]). The “Latency” value in data set [4] (setting [10]) is 41.23 ± 13.67 s; in data set [4] (setting [11]), 48.56 ± 16.53 s; in data set [5] (setting [12]), 104.35 ± 45.23 s; in data set [5] (setting [13]), 116.78 ± 53.96 s; in data set [3] (setting [14]), 69.28 ± 21.20 s; in data set [3] (setting [15]) it was 83.68 ± 36.13 s. Also, the figures for the “Number of coughs per 5 min” value in data set [5] (setting [12]) and in data set [5] (setting [13]) were 13.88 ± 5.25 and 9.63 ± 3.20, respectively. For the same molecule, the Phenol red concentration in data set [2] (setting [10]) was found to be 3.28 ± 1.20 µg/mL; in data set [2] (setting [11]), 3.88 ± 1.43 µg/mL. Further, the “Swelling degree” value in data set [1] (setting [14]) is on record as 3.12 ± 2.52 mg; in data set [1] (setting [15]) it was 2.21 ± 1.45 mg. Besides, the inhibition at 150 mg/kg in data set [1] (Mus musculus, po, 168 h, 150 mg/kg intragastric once per day for 7 days, relative to average swelling degree of control group, read-out: Swelling inhibition rate (%)) was 14.3%. In data set [1] (Mus musculus, po, 168 h, 300 mg/kg intragastric once per day for 7 days, relative to average swelling degree of control group, read-out: Swelling inhibition rate (%)), the inhibition at 300 mg/kg came to 39.3%. In addition, the “Toxic side reactions and death in acute toxicity tests” value in data set [6] is “no toxic side reactions and death occurred”. The “Chromosome aberrations or mutagenesis in the genetic test” value in data set [7] is “no chromosome aberrations or mutagenesis were found”.

These data come from patent US11744841B2, “Use of trezastilbenoside in manufacture of product for treating and/or preventing disease of respiratory system” (KPC PHARMACEUTICALS, INC., priority 2019, dated 2023).
